Experimental findings from patent US20240002416A1 (Rheinische-Friedrich-Wilhelms-Universität Bonn, priority 2020, published 2024) are described below.

A value given as a limit tells only on which side of the number the result lay.

For series [1], the target named is T1, human MRGPRX4-83L (Homo sapiens, UniProt Q96LA9).
T1 construct: host or cells: CHO β-arrestin cells
The experiment in a line: β-arrestin assay (CHO β-arrestin ARMS1-ProLink 2 human MRGPRX4 83L). Format: cell-based. The conditions noted are these: Table 1; for Emax: efficacy based on maximal effect of 100 nM B-16 (set as 100%), read-out: Emax; for EC50: β-arrestin recruitment, CHO cells, MRGPRX4-83L, means of 3-4 experiments, read-out: EC50 ± SEM. In short, it runs like this: (§1)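 CHO cells, recombinant hMRGPRX4 → β-arrestin recruitment via β-gal complementation. Ca mobilization → recombinant astrocytes (83L) or native LN229 cells (83S).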

For series [2], the target named is T2, MRGPRX4-83S (Homo sapiens, UniProt Q96LA9, L83S). The experiment in a line: Calcium assay (human glioblastoma LN229 cells expressing the MRGPRX4-83S). Format: cell-based. Also on record: LN229 glioblastoma cells natively expressing the MRGPRX4-83S; endogenous in cells; host or cells: LN229 human glioblastoma cells. The note with it: for Emax: LN-229, efficacy based on 30 μM H-1 (set as 100%), read-out: Emax; for EC50: calcium mobilization, LN229 cells, MRGPRX4-83S, read-out: EC50 ± SEM. In short, it runs like this: as §1
T2 sequence (Q96LA9 whole entry L83S): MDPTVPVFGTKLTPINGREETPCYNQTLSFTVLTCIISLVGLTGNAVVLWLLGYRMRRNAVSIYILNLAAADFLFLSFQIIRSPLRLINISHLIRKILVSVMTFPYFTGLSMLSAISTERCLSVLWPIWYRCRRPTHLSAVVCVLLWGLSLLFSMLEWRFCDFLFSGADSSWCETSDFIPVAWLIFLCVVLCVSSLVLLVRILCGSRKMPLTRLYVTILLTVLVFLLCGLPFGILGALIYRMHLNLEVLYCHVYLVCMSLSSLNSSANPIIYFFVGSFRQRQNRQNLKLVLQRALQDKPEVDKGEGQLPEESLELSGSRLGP

Series [3] deals with T2, MRGPRX4-83S. The experiment in a line: β-arrestin assay (CHO β-arrestin human MRGPRX4-83S). Format: cell-based. Also on record: host or cells: CHO β-arrestin cells. The conditions noted are these: for Emax: efficacy based on 100 nM B-16 (set as 100%), read-out: Emax; for EC50: β-arrestin recruitment, CHO cells, MRGPRX4-83S, read-out: EC50 ± SEM. The gist of the method:
as §1

Series [4] concerns the target T1, human MRGPRX4-83L. Kind of series: Calcium assay (human MRGPRX4 83L), recombinant astrocytes. The conditions noted are these: Table 1; for EC50: calcium mobilization, MRGPRX4-83L, read-out: EC50 ± SEM; for Emax: efficacy based on maximal effect of 1 μM B-16 (set as 100%), read-out: Emax. The format is cell-based. In short, it runs like this: as §1

T1 sequence (Q96LA9 whole entry): as the sequence (Q96LA9 whole entry L83S) above, with S83L counted along it

As to `C#CCn1c(=O)c2[nH]c(CCc3cccc(F)c3)nc2n(CCCCP(=O)(O)O)c1=O` [B-3, (4-(8-(3-Fluorophenethyl)-2,6-dioxo-1-(prop-2-yn-1-yl)-1,2,6,7-tetrahydro-3H-purin-3-yl)butyl)phosphonic acid], the melting point was in the range of 154 to 156 °C. Further, at human MRGPRX4-83L [1], the maximal effect (Emax) turned out to be 89% and the EC50 came out at 7940 ± 1450 nM. Also, on MRGPRX4-83S [2] (Table 2), the maximal response (Emax) is 118% and the EC50 is 63.1 ± 18.6 nM. At MRGPRX4-83S [3] (Table 2), the Emax is 93% and the EC50 was found to be 33.9 ± 5.1 nM. On human MRGPRX4-83L [4], the concentration giving a half-maximal response (EC50) was determined as 601 ± 103 nM and the Emax amounted to 110%.

In turn, `C#CCn1c(=O)c2[nH]c(CCc3cccc(Br)c3)nc2n(CCCCP(=O)(O)O)c1=O` [B-4, (4-(8-(3-Bromophenethyl)-2,6-dioxo-1-(prop-2-yn-1-yl)-1,2,6,7-tetrahydro-3H-purin-3-yl)butyl)phosphonic acid] showed a melting point of 240 to 242 °C. Moreover, on human MRGPRX4-83L [1], the Emax stood at 103% and the EC50 was 2140 ± 850 nM. At MRGPRX4-83S [2] (Table 2), the Emax came to 109% and the concentration giving a half-maximal response (EC50) turned out to be 4.69 ± 1.58 nM. At MRGPRX4-83S [3] (Table 2), the Emax was found to be 110% and the concentration for a half-maximal effect (EC50) turned out to be 3.24 ± 1.16 nM. For the same compound, on human MRGPRX4-83L [4], the EC50 is 80.8 ± 16.8 nM and the Emax came out at 100%.

`C#CCn1c(=O)c2[nH]c(CCc3cccc(C)c3)nc2n(CCCCP(=O)(O)O)c1=O` [B-5, (4-(8-(3-Methylphenethyl)-2,6-dioxo-1-(prop-2-yn-1-yl)-1,2,6,7-tetrahydro-3H-purin-3-yl)butyl)phosphonic acid] came in with a melting point of 244 to 246 °C. Also, on human MRGPRX4-83L [1], the maximum response (Emax) stood at 99% and the EC50 amounted to 15200 ± 520 nM. Also, on MRGPRX4-83S [2] (Table 2), the Emax is 96% and the EC50 was determined as 18.1 ± 1.5 nM. On MRGPRX4-83S [3] (Table 2), the maximal effect (Emax) is 103% and the concentration for a half-maximal effect (EC50) was found to be 34.3 ± 7.6 nM. For the same compound, on human MRGPRX4-83L [4], the half-maximal effective concentration (EC50) is 492 ± 38 nM and the maximal response (Emax) is 91%.

Compound `C#CCn1c(=O)c2[nH]c(CCc3cccc(C(F)(F)F)c3)nc2n(CCCCP(=O)(O)O)c1=O` [B-6, (4-(2,6-Dioxo-1-(prop-2-yn-1-yl)-8-(3-(trifluoromethyl)phenethyl)-1,2,6,7-tetrahydro-3H-purin-3-yl)butyl)phosphonic acid] showed a melting point of 223 to 226 °C. For the same compound, on human MRGPRX4-83L [1], the maximal effect (Emax) stood at 114% and the EC50 turned out to be 11900 ± 1800 nM. At MRGPRX4-83S [2] (Table 2), the maximal effect (Emax) was 150% and the EC50 was determined as 38.2 ± 10.9 nM. Also, at MRGPRX4-83S [3] (Table 2), the Emax was found to be 100% and the concentration giving a half-maximal response (EC50) was 20.5 ± 2.4 nM. At human MRGPRX4-83L [4], the EC50 stood at 267 ± 66 nM and the maximal effect (Emax) came to 99%.

For the compound `C#CCn1c(=O)c2[nH]c(CCc3ccccc3OC)nc2n(CCCCP(=O)(O)O)c1=O` [B-7, (4-(8-(2-Methoxyphenethyl)-2,6-dioxo-1-(prop-2-yn-1-yl)-1,2,6,7-tetrahydro-3H-purin-3-yl)butyl)phosphonic acid], the melting point lay in the range of 169 to 172 °C. Also, on human MRGPRX4-83L [1], the Emax stood at 103% and the EC50 was determined as 3120 ± 1200 nM. On MRGPRX4-83S [2] (Table 2), the Emax stood at 132% and the EC50 was determined as 10.3 ± 1.3 nM. Also, on MRGPRX4-83S [3] (Table 2), the Emax was determined as 101% and the EC50 came out at 8.94 ± 1.38 nM. Moreover, at human MRGPRX4-83L [4], the EC50 was found to be 397 ± 32 nM and the Emax stood at 108%.

As to `C#CCn1c(=O)c2[nH]c(CCc3ccc(OC)cc3OC)nc2n(CCCCP(=O)(O)O)c1=O` [B-10, (4-(8-(2,4-Dimethoxyphenethyl)-2,6-dioxo-1-(prop-2-yn-1-yl)-1,2,6,7-tetrahydro-3H-purin-3-yl)butyl)phosphonic acid], the melting point lay in the range of 255 to 257 °C. Besides, on human MRGPRX4-83L [1], the Emax stood at 100% and the EC50 came out at 14500 ± 2400 nM. At MRGPRX4-83S [2] (Table 2), the Emax is 82% and the EC50 amounted to 30.6 ± 3.1 nM. Besides, at MRGPRX4-83S [3] (Table 2), the Emax was 87% and the concentration giving a half-maximal response (EC50) was found to be 71.4 ± 19.3 nM. Besides, on human MRGPRX4-83L [4], the concentration for a half-maximal effect (EC50) came to 425 ± 187 nM and the Emax came out at 113%.

In the case of `CCn1c(=O)c2[nH]c(CCc3ccc(F)cc3)nc2n(CCCCP(=O)(O)O)c1=O` [B-14, (4-(1-Ethyl-8-(4-fluorophenethyl)-2,6-dioxo-1,2,6,7-tetrahydro-3H-purin-3-yl)butyl)phosphonic acid], the melting point was 256 to 260 °C. Further, the “value in brackets beside IC50 >10” value on human MRGPRX4-83L [1] (bracketed value ± spread in IC50 column, not defined, inhibition of 2.6 μM B-16) is 3 ± 15. Besides, on human MRGPRX4-83L [1] (inhibition of the effect of 2.6 μM B-16), the IC50 is > 10000 nM. Further, at human MRGPRX4-83L [1], the EC50 was > 10000 nM. Also, on MRGPRX4-83S [2] (Table 2), the Emax came to 74% and the EC50 was found to be 500 ± 113 nM. Also, on MRGPRX4-83S [3] (Table 2), the maximum response (Emax) amounted to 81% and the EC50 turned out to be 735 ± 131 nM. At human MRGPRX4-83L [4], the EC50 was found to be 9450 ± 3230 nM and the Emax is 99%.

Compound `C#CCn1c(=O)c2c(nc(CCc3ccc(C(F)(F)F)cc3)n2CC2CCCC2)n(CCCCP(=O)(O)O)c1=O` [B-40, (4-(7-(cyclopentylmethyl)-2,6-dioxo-1-(prop-2-yn-1-yl)-8-(4-(trifluoromethyl)phenethyl)-1,2,6,7-tetrahydro-3H-purin-3-yl)butyl)phosphonic acid] showed a melting point of 101 to 102 °C. Also, the IC50 at MRGPRX4-83S [2] is 13 ± 1.4 nM. Also, on MRGPRX4-83S [2] (Table 3), the maximal effect (Emax) worked out at 8% and the 50% effective concentration (EC50) was found to be 23.7 ± 0.7 nM. At MRGPRX4-83S [3] (Table 3), the maximum response (Emax) came to 77% and the concentration giving a half-maximal response (EC50) amounted to 18.3 ± 6.1 nM.

`C#CCn1c(=O)c2c(nc(CCc3ccc(OC)cc3)n2CC2CCCC2)n(CCCCP(=O)(O)O)c1=O` [B-41, (4-(7-(cyclopentylmethyl)-8-(4-methoxyphenethyl)-2,6-dioxo-1-(prop-2-yn-1-yl)-1,2,6,7-tetra-hydro-3H-purin-3-yl)butyl)phosphonic acid] had a melting point of 111 to 113 °C. In addition, at MRGPRX4-83S [2] (Table 3), the maximal effect (Emax) stood at 57% and the EC50 came out at 51.4 ± 8.5 nM. Further, at MRGPRX4-83S [3] (Table 3), the Emax turned out to be 96% and the EC50 turned out to be 3.67 ± 1.21 nM.

The compound `C#CCn1c(=O)c2c(nc(CCc3ccc(C(C)C)cc3)n2CC2CCCC2)n(CCCCP(=O)(O)O)c1=O` [B-43, (4-(7-(cyclopentylmethyl)-8-(4-isopropylphenethyl)-2,6-dioxo-1-(prop-2-yn-1-yl)-1,2,6,7-tetra-hydro-3H-purin-3-yl)butyl)phosphonic acid] gave a melting point of 125 to 127 °C. Moreover, the EC50 on MRGPRX4-83S [2] (Table 3) was > 10000 nM. On MRGPRX4-83S [3] (Table 3), the maximal response (Emax) was 53% and the EC50 turned out to be 10.7 ± 7.1 nM.

For the compound `C#CCn1c(=O)c2c(nc(CCc3ccc(-c4ccccc4)cc3)n2CC2CCCC2)n(CCCCP(=O)(O)O)c1=O` [B-44, (4-(8-(2-([1,1′-biphenyl]-4-yl)ethyl)-7-(cyclopentylmethyl)-2,6-dioxo-1-(prop-2-yn-1-yl)-1,2,6,7-tetrahydro-3H-purin-3-yl)butyl)phosphonic acid], the melting point fell in the range of 156 to 158 °C. At MRGPRX4-83S [2], the IC50 worked out at 0.0873 ± 0.012 nM. Besides, at MRGPRX4-83S [2] (Table 3), the EC50 is > 10000 nM. In addition, at MRGPRX4-83S [3] (Table 3), the maximal response (Emax) was determined as 43% and the EC50 is 2.12 ± 0.85 nM.

With `C#CCn1c(=O)c2c(nc(CCc3ccccc3C)n2C(C)C)n(CCCCP(=O)(O)O)c1=O` [B-48, (4-(7-Isopropyl-8-(2-methylphenethyl)-2,6-dioxo-1-(prop-2-yn-1-yl)-1,2,6,7-tetrahydro-3H-purin-3-yl)butyl)phosphonic acid], the melting point lay in the range of 88 to 90 °C. At MRGPRX4-83S [2] (Table 3), the maximal effect (Emax) is 154% and the EC50 is 0.984 ± 0.054 nM. In addition, on MRGPRX4-83S [3] (Table 3), the Emax came out at 102% and the EC50 is 0.0705 ± 0.0198 nM.

In turn, `C#CCn1c(=O)c2c(nc(CCc3ccccc3Br)n2C(C)CC)n(CCCCP(=O)(O)O)c1=O` (stereo not shown) [B-49, (4-(8-(2-bromophenethyl)-7-(sec-butyl)-2,6-dioxo-1-(prop-2-yn-1-yl)-1,2,6,7-tetrahydro-3H-purin-3-yl)butyl)phosphonic acid] registered a melting point of 105 to 107 °C. On MRGPRX4-83S [2] (Table 3), the Emax was 119% and the EC50 came out at 0.491 ± 0.192 nM. At MRGPRX4-83S [3] (Table 3), the Emax turned out to be 103% and the concentration for a half-maximal effect (EC50) was determined as 0.0751 ± 0.0229 nM.

For the compound `C#CCn1c(=O)c2[nH]c(CCc3ccccc3Br)nc2n(CCCCCC(=O)O)c1=O` [G-3, 6-(8-(2-Bromophenethyl)-2,6-dioxo-1-(prop-2-yn-1-yl)-1,2,6,7-tetrahydro-3H-purin-3-yl) hexanoic acid], the melting point lay in the range of 192 to 194 °C. The EC50 at MRGPRX4-83S [2] (Table 3) is > 10000 nM. For the same compound, the half-maximal effective concentration (EC50) on MRGPRX4-83S [3] (Table 3) was > 100000 nM.
